EC50, T/C and Activity data for six compounds are collected here from ChEMBL document CHEMBL1151613, “Potential anticancer agents XXXI. N-demethylation of fagaronine” (1984).

Test [1] deals with KB. Nature of the test: Cytotoxicity against human KB cells after 48 hrs. Type of test: functional. As to conditions: read-out: ED50 (the source's name).
Test [2] has as its system P388. Kind of test: Cytotoxicity against mouse P388 cells after 48 hrs. The class given is functional. To be noted: P388, 48 h, read-out: ED50 (the source's name).
In test [3] the test system is L1210. Kind of test: In vivo antitumor activity against mouse L1210 cells at 160 mg/kg administered on day 1 and 9 relative to control. Type of test: functional.
Test [4] deals with P388. Nature of the test: In vivo antitumor activity against mouse P388 cells at 320 mg/kg for 1 to 9 days relative to control. Type of test: functional.
Test [5] deals with CX-1. Kind of test: In vivo antitumor activity against human CX-1 cells at 150 mg/kg administered on day 1, 5,9 and 13 relative to control. The class given is functional.
Test [6] deals with P388. Kind of test: In vivo antitumor activity against mouse P388 cells at 160 mg/kg administered on day 1, 5 and 9 relative to control. The class given is functional.
The subject of test [7] is P388. Nature of the test: In vivo antitumor activity against mouse P388 cells at 40 mg/kg administered on day 1, 5 and 9 relative to control. The class given is functional.
The test system of test [8] is Colon 26. Kind of test: In vivo antitumor activity against mouse Colon 26 cells at 40 mg/kg administered on day 1, 5 and 9 relative to control. Type of test: functional.
Test [9] deals with MX1. Kind of test: In vivo antitumor activity against human MX1 cells at 1200 mg/kg administered on day 1, 5 and 9 relative to control. The class given is functional.
Test [10] deals with P388. Kind of test: In vivo antitumor activity against mouse P388 cells at 160 mg/kg for 1 to 9 days relative to control. The class given is functional.
The subject of test [11] is LX-1. Nature of the test: In vivo antitumor activity against human LX1 cells at 1200 mg/kg administered on day 1, 5 and 9 relative to control. Type of test: functional.
For test [12], the system named is Lewis lung carcinoma cell line. Nature of the test: In vivo antitumor activity against mouse LLC cells at 100 mg/kg for 1 to 9 days relative to control. The class given is functional.
Test [13] deals with B16. Kind of test: In vivo antitumor activity against mouse B16 cells at 200 mg/kg for 1 to 9 days relative to control. The class given is functional.
For test [14], the system named is P388. Kind of test: In vivo antitumor activity against mouse P388 cells at 40 mg/kg for 1 to 9 days relative to control. The class given is functional.
Test [15] has as its system B16. Nature of the test: In vivo antitumor activity against mouse B16 cells at 50 mg/kg for 1 to 9 days relative to control. The class given is functional.
Test [16] deals with LX-1. Nature of the test: In vivo antitumor activity against human LX1 cells at 300 mg/kg administered on day 1, 5 and 9 relative to control. The class given is functional.
The test system of test [17] is Colon 26. Nature of the test: In vivo antitumor activity against mouse Colon 26 cells at 160 mg/kg administered on day 1, 5 and 9 relative to control. The class given is functional.
Test [18] concerns MC-38. Nature of the test: In vivo antitumor activity against mouse Colon 38 cells at 200 mg/kg administered on day 2 and 9 relative to control. Type of test: functional.
Test [19] in a line: In vivo antitumor activity against mouse CD8F1 cells at 2000 mg/kg on day 24 relative to control. The class given is functional.
The test system of test [20] is L1210. Nature of the test: In vivo antitumor activity against mouse L1210 cells at 40 mg/kg administered on day 1, 5 and 9 relative to control. The class given is functional.
The test system of test [21] is P388. Nature of the test: In vivo antitumor activity against mouse P388 cells at 80 mg/kg for 1 to 9 days relative to control. Type of test: functional.
The subject of test [22] is Colon 26. Kind of test: In vivo antitumor activity against mouse Colon 26 cells at 80 mg/kg administered on day 1, 5 and 9 relative to control. The class given is functional.
In test [23] the test system is MX1. Kind of test: In vivo antitumor activity against human MX1 cells at 600 mg/kg administered on day 1, 5 and 9 relative to control. The class given is functional.
In test [24] the test system is P388. Kind of test: In vivo antitumor activity against mouse P388 cells at 50 mg/kg for 1 to 10 days relative to control. The class given is functional.
Test [25] concerns LX-1. Kind of test: In vivo antitumor activity against human LX1 cells at 2400 mg/kg administered on day 1, 5 and 9 relative to control. Type of test: functional.
Test [26] relates to P388. Nature of the test: In vivo antitumor activity against mouse P388 cells at 320 mg/kg administered on day 1, 5 and 9 relative to control. Type of test: functional.
In test [27] the test system is MX1. Kind of test: In vivo antitumor activity against human MX1 cells at 300 mg/kg relative to control on day 1, 5 and 9 relative to control. The class given is functional.
The subject of test [28] is L1210. Nature of the test: In vivo antitumor activity against mouse L1210 cells at 80 mg/kg administered on day 1 and 9 relative to control. Type of test: functional.
Test [29] deals with L1210. Nature of the test: In vivo antitumor activity against mouse L1210 cells at 320 mg/kg administered on day 1 and 9 relative to control. The class given is functional.
For test [30], the system named is P388. Kind of test: In vivo antitumor activity against mouse P388 cells at 80 mg/kg administered on day 1, 5 and 9 relative to control. Type of test: functional.
In test [31] the test system is Colon 26. Kind of test: In vivo antitumor activity against mouse Colon 26 cells at 320 mg/kg administered on day 1, 5 and 9 relative to control. The class given is functional.
Test [32] deals with L1210. Nature of the test: In vivo antitumor activity against mouse L1210 cells at 160 mg/kg administered on day 1, 5 and 9 relative to control. The class given is functional.
The subject of test [33] is LX-1. Kind of test: In vivo antitumor activity against human LX1 cells at 600 mg/kg administered on day 1, 5 and 9 relative to control. The class given is functional.
The test system of test [34] is Lewis lung carcinoma cell line. Kind of test: In vivo antitumor activity against mouse LLC cells at 200 mg/kg for 1 to 9 days relative to control. Type of test: functional.
For test [35], the system named is Lewis lung carcinoma cell line. Kind of test: In vivo antitumor activity against mouse LLC cells at 50 mg/kg for 1 to 9 days relative to control. Type of test: functional.
The subject of test [36] is L1210. Kind of test: In vivo antitumor activity against mouse L1210 cells at 80 mg/kg administered on day 1, 5 and 9 relative to control. The class given is functional.
Test [37] deals with MC-38. Nature of the test: In vivo antitumor activity against mouse Colon 38 cells at 50 mg/kg administered on day 2 and 9 relative to control. The class given is functional.
In test [38] the test system is CX-1. Kind of test: In vivo antitumor activity against human CX-1 cells at 300 mg/kg administered on day 1, 5, 9 and 13 relative to control. The class given is functional.
Test [39] relates to P388. Kind of test: In vivo antitumor activity against mouse P388 cells at 25 mg/kg for 1 to 10 days relative to control. The class given is functional.
Test [40] relates to P388. Kind of test: In vivo antitumor activity against mouse P388 cells at 100 mg/kg for 1 to 10 days relative to control. Type of test: functional.
Test [41] is described as follows: In vivo antitumor activity against mouse CD8F1 cells at 250 mg/kg administered on day 24 relative to control. Type of test: functional.
For test [42], the system named is MC-38. Nature of the test: In vivo antitumor activity against mouse Colon 38 cells at 100 mg/kg administered on day 2 and 9 relative to control. The class given is functional.
Test [43] in a line: In vivo antitumor activity against mouse CD8F1 cells at 125 mg/kg administered on day 24 relative to control. Type of test: functional.
The test system of test [44] is CX-1. Kind of test: In vivo antitumor activity against human CX-1 cells at 75 mg/kg administered on day 1, 5,9 and 13 relative to control. Type of test: functional.
Test [45] relates to L1210. Nature of the test: In vivo antitumor activity against mouse L1210 cells at 320 mg/kg administered on day 1, 5 and 9 relative to control. The class given is functional.
Test [46] is described as follows: In vivo antitumor activity against mouse CD8F1 cells at 500 mg/kg administered on day 24 relative to control. The class given is functional.
The subject of test [47] is MX1. Nature of the test: In vivo antitumor activity against human MX1 cells at 150 mg/kg administered on day 1, 5 and 9 relative to control. Type of test: functional.
For test [48], the system named is Lewis lung carcinoma cell line. Kind of test: In vivo antitumor activity against mouse LLC cells at 25 mg/kg for 1 to 9 days relative to control. Type of test: functional.
The subject of test [49] is B16. Kind of test: In vivo antitumor activity against mouse B16 cells at 100 mg/kg for 1 to 9 days relative to control. Type of test: functional.
Test [50] concerns CX-1. Nature of the test: In vivo antitumor activity against human CX-1 cells at 600 mg/kg administered on day 1, 5, 9 and 13 relative to control. The class given is functional.
The test system of test [51] is L1210. Kind of test: In vivo antitumor activity against mouse L1210 cells at 40 mg/kg administered on day 1 and 9 relative to control. The class given is functional.
Test [52] in a line: In vivo antitumor activity against mouse CD8F1 cells at 1000 mg/kg administered on day 24 relative to control. Type of test: functional.
Test [53] relates to P388. Nature of the test: Cytotoxicity against mouse P388 cells at 25 ug/ml after 48 hrs. Type of test: functional, cell-based.
In test [54] the test system is KB. Kind of test: Cytotoxicity against human KB cells at 25 ug/ml after 48 hrs. The class given is functional, cell-based.

Molecules are shown by their SMILES. In brackets after ≈: the same amount, converted by molar mass. Activity calls are given as the source filed them. The calls are words filed in the database; no cut-off is given here.

Regarding `COc1cc2c(cnc3c4cc(OC)c(O)cc4ccc23)cc1O`, the EC50 worked out at 22.4 µg/mL (≈ 69.7 µM) in the test on KB [1] and 13 µg/mL (≈ 40.5 µM) in the test on P388 [2].

Broadly, the T/C is the ratio of treated to control. For `COc1cc2c(ccc3c4cc(OC)c(OC)cc4c[n+](C)c23)cc1O.[Cl-]` [FAGARONINE], the T/C in the test with L1210 [3] is listed as 145%; in the test with P388 [4], 205%; with CX-1 [5], 42%; in the test with P388 [6], 215%; in the test on P388 [7], 190%; with Colon 26 [8], 117%. Also, the T/C is 68% in the test on MX1 [9]; 270% in the test with P388 [10]; 46% in the test on LX-1 [11]; 125% in test [12]; 100% with B16 [13]; 190% with P388 [14]. For the same compound, the T/C with B16 [15] worked out at 108%; in the test on LX-1 [16], 107%; in the test on Colon 26 [17], 120%; in the test on MC-38 [18] it was 81%; in test [19], 121%; in the test on L1210 [20] it was 143%. Moreover, the T/C in the test with P388 [21] was determined as 210%; with Colon 26 [22], 121%; in the test with MX1 [23] it was 79%; with P388 [24], 210%; in the test with LX-1 [25] it was 65%; in the test with P388 [26] it was 270%. Moreover, the T/C in the test with MX1 [27] is reported as 74%; in the test with L1210 [28], 159%; in the test with L1210 [29] it was 161%; with P388 [30], 180%; in the test with Colon 26 [31] it was 138%; in the test with L1210 [32], 136%. Besides, the T/C amounted to 79% in the test on LX-1 [33]; 134% in test [34]; 113% in [35]; 145% in the test with L1210 [36]; 139% in the test on MC-38 [37]; 51% with CX-1 [38]. Also, the T/C came to 90% with P388 [39]; 265% with P388 [40]; 190% in test [41]; 89% in the test on MC-38 [42]; 137% in test [43]; 49% with CX-1 [44]. In addition, the T/C was found to be 137% in the test on L1210 [45]; 134% in [46]; 83% with MX1 [47]; 111% in [48]; 97% in the test on B16 [49]; 75% in the test on CX-1 [50]. The values for the T/C (with L1210 [51]; in test [52]) were 137% and 89%, respectively. The EC50 with KB [1] amounted to 0.57 µg/mL; in the test on P388 [2], 0.18 µg/mL.

With `COc1cc2cnc3c4cc(OC)c(OC(C)=O)cc4ccc3c2cc1OC`, the outcome with P388 [53] and in the test on KB [54] was inactive.

Consider `COc1cc2c(ccc3c4cc(OC)c(OC)cc4cnc23)cc1O`, for which the EC50 with P388 [2] was 36.5 µg/mL (≈ 109 µM). Further, the outcome in the test with KB [54] was inactive.

For the compound `COc1cc2cnc3c4cc(OC)c(OC)cc4ccc3c2cc1OC`, the result in the test with P388 [53] and in the test with KB [54] was inactive.

As to `COc1cc2c(cnc3c4cc(OC)c(OC(C)=O)cc4ccc23)cc1OC(C)=O`, the EC50 is 50 µg/mL (≈ 123 µM) in the test with KB [1] and 12.5 µg/mL (≈ 30.8 µM) with P388 [2].
